This is an account of results in US4424373A, “Secalonic acids” (priority 1979, dated 1984).

One data set concerns Bacilus subtilis CPI 219. Description: MIC against Bacilus subtilis CPI 219 (Table 6). The format is cell-based.
Data set [1] relates to Corynebacterium diphtheriae P.W.8. Description: MIC against Corynebacterium diphtheriae P.W.8 (Table 6). The format is cell-based.
The subject of another data set is Sarcina lutea ATCC 9341. Description: MIC against Sarcina lutea ATCC 9341 (Table 6). The format is cell-based. As to conditions: Micrococcus luteus, ATCC9341.
For data set [2], the system named is Trichophyton mentagrophytes IAM 8051. Description: MIC against Trichophyton mentagrophytes IAM 8051 (Table 6). The class given is cell-based. As to conditions: IAM8051.
The test system of data set [3] is Micrococcus flavis ATCC 10240. Description: MIC against Micrococcus flavis ATCC 10240 (Table 6). The format is cell-based. As to conditions: ATCC10240.

Molecules are shown by their SMILES. In brackets after ≈: the same amount, converted by molar mass. Some results are limits rather than exact numbers.

By MIC is commonly meant the lowest concentration that inhibits growth of the organism. Lower therefore signals greater potency.

In the case of `COC(=O)C12Oc3ccc(-c4ccc5c(c4O)C(=O)C4=C(O)CC(C)C(O)C4(C(=O)OC)O5)c(O)c3C(=O)C1=C(O)CC(C)C2O` (single isomer, unassigned) [Compound I, secalonic acid A having a 2,2'-linkage, reference compound], the solubility in chloroform result is given as “insoluble”.

For the compound `COC(=O)C12Oc3ccc(-c4ccc5c(c4O)C(=O)C4=C(O)CC(C)C(O)C4(C(=O)OC)O5)c(O)c3C(=O)C1=C(O)CC(C)C2O` (centres unmarked) [2,2'-SD, secalonic acid D having a 2,2'-linkage, reference compound], the MIC was more than 100 µg/mL against Bacilus subtilis CPI 219; 50 µg/mL (≈ 78.3 µM) in data set [1]; more than 100 µg/mL against Sarcina lutea ATCC 9341; 12.5 µg/mL (≈ 19.6 µM) in data set [2]; 100 µg/mL (≈ 157 µM) in data set [3].

In the case of `COC(=O)C12Oc3ccc(-c4ccc(O)c5c4OC4(C(=O)OC)C(=C(O)CC(C)C4O)C5=O)c(O)c3C(=O)C1=C(O)CC(C)C2O` (centres unmarked) [2,4'-SD, secalonic acid D having a 2,4'-linkage], the MIC stood at 50 µg/mL (≈ 78.3 µM) in the data set on Bacilus subtilis CPI 219; 12.5 µg/mL (≈ 19.6 µM) in data set [1]; 12.5 µg/mL (≈ 19.6 µM) in the data set with Sarcina lutea ATCC 9341; 3.1 µg/mL (≈ 4.85 µM) in data set [2]; 25 µg/mL (≈ 39.1 µM) in data set [3].

On to `COC(=O)C12Oc3c(-c4ccc(O)c5c4OC4(C(=O)OC)C(=C(O)CC(C)C4O)C5=O)ccc(O)c3C(=O)C1=C(O)CC(C)C2O` (centres unmarked) [4,4'-SD, secalonic acid D having a 4,4'-linkage], for which the MIC turned out to be 12.5 µg/mL (≈ 19.6 µM) against Bacilus subtilis CPI 219; 6.3 µg/mL (≈ 9.87 µM) in data set [1]; 3.1 µg/mL (≈ 4.85 µM) in the data set on Sarcina lutea ATCC 9341; 1.6 µg/mL (≈ 2.51 µM) in data set [2]; 12.5 µg/mL (≈ 19.6 µM) in data set [3].

Take `COC(=O)[C@]12Oc3ccc(-c4ccc5c(c4O)C(=O)C4=C(O)C[C@@H](C)[C@H](OC=O)[C@@]4(C(=O)OC)O5)c(O)c3C(=O)C1=C(O)C[C@@H](C)[C@@H]2OC=O` [diformyl derivative of Compound I, diformyl derivative of secalonic acid A having a 2,2'-linkage]: the solubility in chloroform result was “soluble”.
